Literature values in paper PMC4364341, “NBD delivery improves the disease phenotype of the golden retriever model of Duchenne muscular dystrophy” (Skeletal Muscle, 2014).

Tested on: GRMD dogs
Conditions: previous GRMD prednisone trial; cited from earlier work
Source text: This functional benefit obtained by NBD in GRMD dogs was consistent with that obtained in the mdx murine model of DMD [13].

SMILES: C[C@]12C=CC(=O)C=C1CC[C@@H]1[C@@H]2C(=O)C[C@@]2(C)[C@H]1CC[C@]2(O)C(=O)CO [prednisone]
- Extension force in treated GRMD dogs: increased extension force
